# Measured values reported in patent publication US9518038B2, “Condensation product of theanine derivative and carboxylic acid coumarin derivative, its intermediate, preparation method and use thereof” (SHANDONG YINGDONG YINGHAO BIOTECHNOLOGY, INC., priority 2012, dated 2016).
# Tests used:
# [1] = system: human gastric cancer cells BGC-823; assay: MTT growth inhibition, BGC-823 cells; type: cell-based; settings: 72 h after treatment, read-out: Drug concentration (IC50) at which 50% cancer cells survived
# Source text: (§1) Cell lines and cell culture: human lung cancer cells A549 and H460, human breast cancer cells MCF-7 and MDA-MB-231, human gastric cancer cells BGC-823, human prostate cancer cells PC-3, human chronic leukemia cells K562, human lymphoma cells U937, human liver cancer cells SMMC7721 and HepG2, human colon cancer cells HT29, human pancreatic cancer cells PANC-1 and BxPC3, human cervical cancer Hela cell lines, human brain tumor cells Daoy, human neuroma cells D54 and human oral epidermoid cancer cells KBV200 line with strong drug resistance, mouse melanoma cells B16, and highly metastatic Lewis lung cancer cell lines were purchased from American Type Culture Collection of the U.S. These cells were cultured with DMEM and RPMI-1640 culture solutions separately.
# (§2) The procedure was as follows:
# (§3) (1) 0.25% trypsin was used to digest cancer cells in a logarithmic growth phase to prepare a single-cell suspension, the concentration of cells was adjusted to 5×10^4/mL, and the adjusted suspension was inoculated into a 96-well culture plate with 100 μl per well;
# (§4) (2) The culture plate was transferred into a 37° C. incubator with a saturated humidity and 5% of CO2 and cultured for 24 h; the compounds and the intermediates thereof obtained in embodiments 1-7 and the compound as represented by formula (IIIa) or the positive control anti-cancer drug with the concentration of 1-1000 μM/L were added to enable the final concentration to be 0.1-1500 μM/L. Control wells (only added with 200 μl of cell suspension) and drug-free blank control wells (containing the solvent of 0.01% DMSO) were set, each group included 8 wells, and the plate was placed into the 37° C. incubator with saturated humidity and 5% of CO2 for culturing;
# (§5) (3) The 96-well plate was taken out at 48 h and 72 h after dosing, the original culture medium was carefully removed by suction, 100 μl of serum-free DMEM culture medium and 10 μl of MTT (5 mg/mL) solution were added in each well. The plate was continuously cultured for another 4 h and then the culture was terminated;
# (§6) (4) The supernatant in the wells was carefully removed by suction, each well was added with 150 μl of DMSO and shaked at room temperature for 10-15 min to fully dissolve crystals.
# (§7) (5) Colorimetric analysis: the wavelength was selected as 570 nm, the light absorbance (A value) of each well was determined on the microplate reader and the results were recorded; the experiment was repeated for three times;
# (§8) (6) the experimental results were calculated according to the following formula: relative survival rate=(A value of each experimental group/A value of cell control group)×100%
# (§9) Calculation of median-effect concentration (IC50, namely the drug concentration at which the inhibition rate is 50%, also known as half inhibitory concentration):
# (§10) IC50 of the detected component was calculated by using a regression equation.
# [2] = system: highly metastatic Lewis lung cancer cell lines; assay: MTT growth inhibition, LLC cells; type: cell-based, mouse; settings: Mus musculus, Lewis lung carcinoma, 72 h after treatment, read-out: Drug concentration (IC50) at which 50% cancer cells survived
# Source text: as §1, §2, §3, §4, §5, §6, §7, §8, §9, §10
# [3] = system: human liver cancer cells SMMC7721 xenograft; assay: In-vivo growth of SMMC7721 xenografts in nude mice; design: species or system BALB/c nude mice; settings: Mus musculus, SMMC-7721, ip, S-7721 xenograft, vs DMSO solvent control, read-out: Curative effect (inhibition rate %) of tumor weight; for inhibition in vivo at 60 mg/kg: 60 mg/kg intraperitoneal once a day; for inhibition in vivo at 90 mg/kg: 90 mg/kg intraperitoneal once a day
# Method: (§11) RPMI1640 and DMEM culture solutions: Hyclone Company; inactivated fetal bovine serum: Hyclone Company, preserved at −20° C.; trypsin: Amersco Company; and 0.4% trypan blue: Sigma Company;
# (3) Observation of growth of tumors in nude mice: the activities (including food intake, traits of urine and stool, mental state and the like) of the nude mice and the tumor growth time and growth situation of the transplanted tumors were observed every day, the body weight and the size of the tumors were measured once every 2-3 days. The long diameter a and the short diameter b (mm) of each tumor were measured by a vernier caliper to calculate the volume, wherein the volume V=π1/2·ab^2 (mm^3);
# (§12) (4) sacrifice of animals: the mice were anesthetized and photoed after treatment experiments; the nude mice were sacrificed by breaking neck, the tumor tissues were stripped under sterile conditions and the weight of the tumors was weighed; and the effects of the drugs on pathology and toxicity of the various organs and tissues were detected.
# [4] = system: human lung cancer cells A549; assay: MTT growth inhibition, A549 cells; type: cell-based; settings: 72 h after treatment, read-out: Drug concentration (IC50) at which 50% cancer cells survived
# Source text: as §1, §2, §3, §4, §5, §6, §7, §8, §9, §10
# [5] = system: human neuroma cells D54; assay: MTT growth inhibition, D54 cells; type: cell-based; settings: Homo sapiens, 72 h after treatment, read-out: Drug concentration (IC50) at which 50% cancer cells survived
# Source text: as §1, §2, §3, §4, §5, §6, §7, §8, §9, §10
# [6] = system: Lewis lung cancer (highly metastatic mouse lung cancer) cells; assay: Mouse Lewis lung cancer metastasis model; type: in vivo, C57/BL6J black mice; settings: Lewis lung carcinoma, ip, LLC, vs DMSO solvent control, read-out: tumor lung metastasis inhibition rate % of mouse Lewis lung cancer; for inhibition in vivo at 60 mg/kg: 60 mg/kg intraperitoneal once a day; for inhibition in vivo at 90 mg/kg: 90 mg/kg intraperitoneal once a day
# Method: as §11, §12
# [7] = system: Dvl-1; assay: Western Blotting, Dvl-1 level; type: cell-based; settings: human liver cancer cells, Lewis lung cancer cells and other cancer cell lines and tumor tissues, read-out: Effective concentration (IC50) for inhibition of Dvl-1
# Source text: (§13) Antibodies: primary antibodies of VEGFR, EGFR, c-Met, K-Ras, H-Ras, Akt, NF-κB, Cyclin D1, ER-alpha, Dvl-1, Dvl-2, Dvl-3, MMP-9, MMP2, β-catenin, Bcl-2, Bax, p53, p21, E-cadherin and Caspase3 protein, purchased from American Cell Signaling Technology Company and Santa Cruz Technology Company; and H3 acetylation, H4 acetylation and HDAC (HDAC3, HDAC4 and the like) Antibody Sample Kits, purchased from Cell Signaling Technology Company of the U.S.
# (§14) (3) polyacrylamide gel electrophoresis (SDS-PAGE): an equal amount of protein lysate sample was used to separate protein, film transfer, and blocking, treated with appropriate primary antibodies and secondary antibodies in sequence, and the film was washed, then the color was developed with ECL kit, and a blot protein band was detected by exposure of an X-ray film; and a Gel-Pro Analyzer was used for quantitative analysis of gray degree, optical density value of the control group and the drug treatment group in various concentration were respectively compared with that of internal reference, the obtained ratios were respectively compared with the control group, and the protein expression level was semi-quantified.
# [8] = system: H-Ras; assay: Western Blotting, H-Ras level; type: cell-based; settings: human liver cancer cells, Lewis lung cancer cells and other cancer cell lines and tumor tissues, read-out: Effective concentration (IC50) for inhibition of H-Ras
# Source text: as §13, §14
# [9] = system: Cyclin D1; assay: Western Blotting, Cyclin D1 level; type: cell-based; settings: human liver cancer cells, Lewis lung cancer cells and other cancer cell lines and tumor tissues, read-out: Effective concentration (IC50) for inhibition of Cyclin D1
# Source text: as §13, §14
# [10] = system: VEGFR2; assay: Western Blotting, VEGFR2 level; type: cell-based; settings: human liver cancer cells, Lewis lung cancer cells and other cancer cell lines and tumor tissues, read-out: Effective concentration (IC50) for inhibition of VEGFR2
# Source text: as §13, §14
SMILES,IC50 [1],IC50 [2],inhibition in vivo at 60 mg/kg [3],inhibition in vivo at 90 mg/kg [3],IC50 [4],IC50 [5],inhibition in vivo at 60 mg/kg [6],inhibition in vivo at 90 mg/kg [6],IC50 [7],IC50 [8],IC50 [9],IC50 [10]
"CCNC(=O)CC[C@H](N)C(=O)OCC [Compound IIb, theanine ethyl ester]",600 µM,300 µM,44.6%,46.8%,500 ± 30 µM,300 µM,52.3%,54.7%,,,,
"CCNC(=O)CC[C@@H](NC(=O)c1cc2cc(Cl)cc(Cl)c2oc1=O)C(=O)OCC [Compound Ig, (R)-2-(6,8-dichloro-2-oxo-2H-benzopyran-3-carboxamido)-5-ethylamino-5-oxo-pentanoic ethyl ester]",60 µM,36 µM,53.6%,70.6%,45 µM,79 µM,75.5%,79.9%,< 125 µM,< 65 µM,< 70 µM,< 100 µM
"CCNC(=O)CC[C@@H](NC(=O)c1cc2cc(Br)cc(Br)c2oc1=O)C(=O)OCC [Compound Ih, (R)-2-(6,8-dibromo-2-oxo-2H-benzopyran-3-carboxamido)-5-ethylamino-5-oxo-pentanoic ethyl ester]",85 µM,53 µM,57.7%,78.7%,56 µM,87 µM,77.9%,80.7%,< 250 µM,< 65 µM,< 70 µM,< 100 µM
"CCNC(=O)CC[C@@H](NC(=O)c1cc2cc(Br)ccc2oc1=O)C(=O)OCC [Compound Id, (R)-2-(6-Br-2-oxo-2H-benzopyran-3-carboxamido)-5-ethylamino-5-oxo-pentanoic acid ethyl ester]",65 µM,116 µM,67.2%,75.7%,139 ± 50 µM,92 µM,69.2%,82.5%,< 250 µM,< 60 µM,< 100 µM,< 100 µM
"CCNC(=O)CCC(NC(=O)c1cc2ccccc2oc1=O)C(=O)OCC (stereo not shown) [Compound Ib, ethyl 5-ethylamino-5-oxo-2-(2-oxo-2H-benzopyran-3-carboxamido)pentanoate]",127 µM,115 µM,60.8%,66.6%,125 ± 50 µM,165 µM,58.2%,69.6%,< 300 µM,< 75 µM,< 120 µM,< 120 µM
"CCNC(=O)CCC(NC(=O)c1cc2ccccc2oc1=O)C(=O)OC (stereo not shown) [Compound Ia, methyl 5-ethylamino-5-oxo-2-(2-oxo-2H-benzopyran-3-carboxamido)pentanoate]",123 µM,185 µM,52.7%,61.9%,300 ± 60 µM,160 µM,55.4%,60.9%,< 135 µM,< 85 µM,< 125 µM,< 125 µM
"CCNC(=O)CC[C@@H](NC(=O)c1cc2cc(Cl)ccc2oc1=O)C(=O)OCC [Compound Ic, (R)-2-(6-CI-2-oxo-2H-benzopyran-3-carboxamido)-5-ethylamino-5-oxo-pentanoic acid ethyl ester]",66 µM,131 µM,63.2%,69.2%,128 ± 60 µM,98 µM,74.2%,79.2%,< 250 µM,< 65 µM,< 100 µM,< 100 µM
"CCNC(=O)CC[C@H](N)C(=O)OC [Compound IIa, theanine methyl ester]",310 µM,100 µM,36.6%,38.2%,650 ± 30 µM,400 µM,36.8%,38.5%,,,,
"CCNC(=O)CCC(NC(=O)c1cc2cc([N+](=O)[O-])ccc2oc1=O)C(=O)OCC (stereo in doubt) [Compound If, (R)-2-(6-nitro-2-oxo-2H-benzopyran-3-carboxamido)-5-ethylamino-5-oxo-pentanoic acid ethyl ester]",115 µM,100 µM,65.7%,75.7%,122 µM,105 µM,67.5%,75.8%,< 200 µM,< 55 µM,< 90 µM,< 90 µM
"CCNC(=O)CCC(NC(=O)c1cc2cc(F)ccc2oc1=O)C(=O)OCC (stereo in doubt) [Compound Ie, (R)-2-(6-F-2-oxo-2H-benzopyran-3-carboxamido)-5-ethylamino-5-oxo-pentanoic acid ethyl ester]",143 µM,110 µM,64.8%,69.9%,141 µM,150 µM,61.6%,70.8%,< 150 µM,< 60 µM,< 160 µM,< 90 µM
